Literature values, collected in PubChem BioAssay AID1259409 (Chemical Carcinogenesis Research Information System (CCRIS), 2018).

System: rodent chemically induced tumor inhibition, incidence and multiplicity
Test: CCRIS tumor inhibitor studies
Settings: Carcinogen: 2,2'-DIHYDROXY-DI-N-PROPYLNITROSAMINE, 53609-64-6, 13147-25-6, Carcinogen: 2,2'-DIHYDROXY-DI-N-PROPYLNITROSAMINE, 53609-64-6, 13147-25-6, Dose [Inhibitor]: 0, Route [Inhibitor]: ORAL, Species: RAT, Strain/Sex: F344/MALE, Promoter: NONE USED

**Q.** With `COc1cc(/C=C/C(=O)O[C@H]2CC[C@]34C[C@]35CC[C@]3(C)[C@@H]([C@H](C)CCC=C(C)C)CC[C@@]3(C)[C@@H]5CC[C@H]4C2(C)C)ccc1O` as the molecule, how does the “tumour outcome (control, treated, inhibition, significance)” value (N-ETHYL-N-HYDROXYETHYL- NITROSAMINE, 3,2'-DIMETHYL-4-, N-ETHYL-N-HYDROXYETHYL- NITROSAMINE, 3,2'-DIMETHYL-4-, 1% IN DIET BEGINNING 1 WK POST LAST CARCINOGEN DOSE AND CONTINUING FOR 32 WK (STUDY DURATION: 36 WK), Target Tissue: Type of Lesion: LIVER: HEPATOCELLULAR CARCINOMA, Dose [Carcinogen]: 1000 MG/KG IP DHPN 2X, 1500 MG/KG GAV EHEN 2X AND 75 MG/KG SC DMAB 3X GIVEN OVER THE INITIAL 3 WK PERIOD AT 3-4 D INTERV) read?
**A.** The value was 6/14 (43%), 3/13 (23%), 47%, not calculated.

**Q.** What about the “tumour outcome (control, treated, inhibition, significance)” value (N-ETHYL-N-HYDROXYETHYL- NITROSAMINE, 3,2'-DIMETHYL-4-, N-ETHYL-N-HYDROXYETHYL- NITROSAMINE, 3,2'-DIMETHYL-4-, 1% IN DIET BEGINNING 1 WK POST LAST CARCINOGEN DOSE AND CONTINUING FOR 32 WK (STUDY DURATION: 36 WK), Target Tissue: Type of Lesion: LUNG: ADENOMA, Dose [Carcinogen]: 1000 MG/KG IP DHPN 2X, 1500 MG/KG GAV EHEN 2X AND 75 MG/KG SC DMAB 3X GIVEN OVER THE INITIAL 3 WK PERIOD AT 3-4 D INTERV) of the same molecule?
**A.** The value was 7/14 (50%), 11/13 (85%), -70%, not calculated.

**Q.** And the “tumour outcome (control, treated, inhibition, significance)” value (N-ETHYL-N-HYDROXYETHYL- NITROSAMINE, 3,2'-DIMETHYL-4-, N-ETHYL-N-HYDROXYETHYL- NITROSAMINE, 3,2'-DIMETHYL-4-, 1% IN DIET BEGINNING 1 WK POST LAST CARCINOGEN DOSE AND CONTINUING FOR 32 WK (STUDY DURATION: 36 WK), Target Tissue: Type of Lesion: LUNG: CARCINOMA, Dose [Carcinogen]: 1000 MG/KG IP DHPN 2X, 1500 MG/KG GAV EHEN 2X AND 75 MG/KG SC DMAB 3X GIVEN OVER THE INITIAL 3 WK PERIOD AT 3-4 D INTERV)?
**A.** Its value is 1/14 (7%), 7/13 (54%), -671%, p<0.05.

**Q.** And the outcome (N-ETHYL-N-HYDROXYETHYL- NITROSAMINE, 3,2'-DIMETHYL-4-, N-ETHYL-N-HYDROXYETHYL- NITROSAMINE, 3,2'-DIMETHYL-4-, 1% IN DIET BEGINNING 1 WK POST LAST CARCINOGEN DOSE AND CONTINUING FOR 32 WK (STUDY DURATION: 36 WK), Target Tissue: Type of Lesion: URINARY BLADDER: PAPILLOMA, Dose [Carcinogen]: 1000 MG/KG IP DHPN 2X, 1500 MG/KG GAV EHEN 2X AND 75 MG/KG SC DMAB 3X GIVEN OVER THE INITIAL 3 WK PERIOD AT 3-4 D INTERV)?
**A.** The outcome was 0/14 (0%), 3/13 (23%), -100%, not calculated.

**Q.** What about the “tumour outcome (control, treated, inhibition, significance)” value (N-ETHYL-N-HYDROXYETHYLNITROSAMINE, 3,2'-DIMETHYL-4-AMINO-, N-ETHYL-N-HYDROXYETHYLNITROSAMINE, 3,2'-DIMETHYL-4-AMINO-, 1% IN DIET FOR 32 WK BEGINNING 1 WK POST CARCINOGEN TREATMENT (STUDY DURATION: 36 WK), Target Tissue: Type of Lesion: KIDNEY: ADENOMA, Dose [Carcinogen]: 1000 MG/KG BW DHPN TWICE , 1500 MG/KG BW EHEN TWICE, 75 MG/KG BW 3 TIMES ADMINISTERED OVER FIRST 3 WK) of the same molecule?
**A.** Its value is 6/14 (43%), 9/13 (69%), -60%, not significant.

**Q.** And the “tumour outcome (control, treated, inhibition, significance)” value (N-ETHYL-N-HYDROXYETHYLNITROSAMINE, 3,2'-DIMETHYL-4-AMINO-, N-ETHYL-N-HYDROXYETHYLNITROSAMINE, 3,2'-DIMETHYL-4-AMINO-, 1% IN DIET FOR 32 WK BEGINNING 1 WK POST CARCINOGEN TREATMENT (STUDY DURATION: 36 WK), Target Tissue: Type of Lesion: KIDNEY: NEPHROBLASTOMA, Dose [Carcinogen]: 1000 MG/KG BW DHPN TWICE, 1500 MG/KG BW EHEN TWICE, 75 MG/KG BW 3 TIMES ADMINISTERED OVER FIRST 3 WK)?
**A.** Its value is 2/14 (14%), 0/13 (0%), 100%, not significant.

**Q.** And the “tumour outcome (control, treated, inhibition, significance)” value (N-ETHYL-N-HYDROXYETHYLNITROSAMINE, 3,2'-DIMETHYL-4-AMINO-, N-ETHYL-N-HYDROXYETHYLNITROSAMINE, 3,2'-DIMETHYL-4-AMINO-, 1% IN DIET FOR 32 WK BEGINNING 1 WK POST CARCINOGEN TREATMENT (STUDY DURATION: 36 WK), Target Tissue: Type of Lesion: KIDNEY: TRANSITIONAL CELL CARCINOMA, Dose [Carcinogen]: 1000 MG/KG BW DHPN TWICE , 1500 MG/ KG BW EHEN TWICE, 75 MG/KG BW 3 TIMES ADMINISTERED OVER FIRST THREE WEEKS)?
**A.** Its value is 1/14 (7%), 2/13 (15%), -114%, not significant.

**Q.** What about the “tumour outcome (control, treated, inhibition, significance)” value (N-ETHYL-N-HYDROXYETHYLNITROSAMINE, 3,2'-DIMETHYL-4-AMINO-, N-ETHYL-N-HYDROXYETHYLNITROSAMINE, 3,2'-DIMETHYL-4-AMINO-, 1% IN DIET FOR 32 WK BEGINNING 1 WK POST CARCINOGEN TREATMENT (STUDY DURATION: 36 WK), Target Tissue: Type of Lesion: LARGE INTESTINE: CARCINOMA, Dose [Carcinogen]: 1000 MG/KG BW DHPN TWICE, 1500 MG/KG BW EHEN TWICE, 75 MG/KG BW 3 TIMES ADMINISTERED OVER 3 WK) of the same molecule?
**A.** The value was 3/14 (21%), 6/13 (46%), -119%, not significant.

**Q.** And the “tumour outcome (control, treated, inhibition, significance)” value (N-ETHYL-N-HYDROXYETHYLNITROSAMINE, 3,2'-DIMETHYL-4-AMINO-, N-ETHYL-N-HYDROXYETHYLNITROSAMINE, 3,2'-DIMETHYL-4-AMINO-, 1% IN DIET FOR 32 WK BEGINNING 1 WK POST CARCINOGEN TREATMENT (STUDY DURATION: 36 WK), Target Tissue: Type of Lesion: LIVER: HEPATOCELLULAR CARCINOMA, Dose [Carcinogen]: 1000 MG/KG BW DHPN TWICE , 1500 MG/KG BW EHEN TWICE 75 MG/KG BW 3 TIMES ADMINISTERED OVER FIRST 3 WK)?
**A.** The value was 6/14 (43%), 3/13 (23%), 47%, not significant.
